Laboratory results: patent US7138361B2, “Herbicidal heterocycles” (E. I. du Pont de Nemours and Company, priority 2000, dated 2006)

Key:
Assay type in all cases: in vivo
[1] = test system: barnyardgrass (Echinochloa crus-galli); experiment: Test B preemergence
Outline: (§1)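 Preemergence: seeds planted and treated with test chemicals in non-phytotoxic solvent with surfactant; postemergence on plants 2–18 cm (1- to 4-leaf stage). Kept in greenhouse 13–15 days, then visually rated against controls on a 0 (no effect) to 100 (complete control) scale.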

[2] = test system: rice (Oryza saliva); experiment: Test B preemergence
Outline: as §1

[3] = test system: cocklebur (Xanthium strumarium); experiment: Test B preemergence
Outline: as §1

[4] = test system: pigweed (Amaranthus retroflexus); experiment: Test B preemergence
Outline: as §1

[5] = test system: giant foxtail (Setaria faberii); experiment: Test B preemergence
Outline: as §1

[6] = test system: Surinam grass (Brachiaria decumbens); experiment: Test B preemergence
Outline: as §1

[7] = test system: crabgrass (Digitaria sanguinalis); experiment: Test B preemergence
Outline: as §1

[8] = test system: morning glory (Ipomoea hederacea); experiment: Test B preemergence
Outline: as §1

[9] = test system: corn (Zea mays); experiment: Test B preemergence
Outline: as §1

[10] = test system: lambsquarters (Chenopodium album); experiment: Test B preemergence
Outline: as §1

[11] = test system: velvetleaf (Abutilon theophrasti); experiment: Test B preemergence
Outline: as §1

[12] = test system: lambsquarters (Chenopodium album); experiment: Test C preemergence; settings: for Plant response rating (0 to 100), Lambsquarters: visual evaluation after 12 to 14 days
Outline: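 Visual injury scores of 0–100, with 100 meaning complete control, were given relative to controls after 12–14 days in the greenhouse. Treatments used a surfactant-containing non-phytotoxic solvent formulation, sprayed on seeded pots preemergence or on 1–4-leaf plants of 2–18 cm postemergence.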

[13] = test system: wheat (Triticum aestivum); experiment: Test B postemergence
Outline: as §1

[14] = test system: barnyardgrass (Echinochloa crus-galli); experiment: Test B postemergence
Outline: as §1

[15] = test system: cocklebur (Xanthium strumarium); experiment: Test B postemergence
Outline: as §1

[16] = test system: pigweed (Amaranthus retroflexus); experiment: Test B postemergence
Outline: as §1

[17] = test system: giant foxtail (Setaria faberii); experiment: Test B postemergence
Outline: as §1

[18] = test system: Surinam grass (Brachiaria decumbens); experiment: Test B postemergence
Outline: as §1

[19] = test system: crabgrass (Digitaria sanguinalis); experiment: Test B postemergence
Outline: as §1

[20] = test system: morning glory (Ipomoea hederacea); experiment: Test B postemergence
Outline: as §1

[21] = test system: corn (Zea mays); experiment: Test B postemergence
Outline: as §1

[22] = test system: lambsquarters (Chenopodium album); experiment: Test B postemergence
Outline: as §1

[23] = test system: wild oat (Avena fatua); experiment: Test B postemergence
Outline: as §1

[24] = test system: velvetleaf (Abutilon theophrasti); experiment: Test B postemergence
Outline: as §1

[25] = test system: blackgrass (Alopecurus myosuroides); experiment: Test B postemergence
Outline: as §1

[26] = Preemergence, Rate 500 g/ha, scale 0 to 100, 0 no effect, 100 complete control
[27] = preemergence, Rate 125 g/ha, scale of 0 to 100 where 0 is no effect and 100 is complete control, 13 to 15 days
[28] = Rate 125 g/ha, scale 0 to 100, 0 no effect, 100 complete control
[29] = preemergence, Rate 62 g/ha, scale 0 to 100
[30] = preemergence, Rate 250 g/ha, scale 0 to 100, 0 no effect, 100 complete control
[31] = Rate 500 g/ha, scale 0 (no effect) to 100 (complete control), 13 to 15 days
[32] = Rate 500 g/ha, scale 0 to 100, 0 is no effect, 100 is complete control, 13 to 15 days
[33] = preemergence, Rate 125 g/ha, scale 0 to 100, 0 no effect, 100 complete control
[34] = Rate 125 g/ha, scale 0 (no effect) to 100 (complete control), 13 to 15 days

With `COc1cc(N2CCC(n3ccc(C(C)(C)C)n3)C2=O)ccc1Br` (stereo not drawn) [Compound 141] the “Plant response rating, Barnyardgrass” value [1, 26] was 100, the “Plant response rating, Barnyardgrass” value [1, 27] was 100 and the “Plant response rating, Rice” value [2, 26] was 50. The “Plant response rating, Rice” value [2, 27] was 30, the “Plant response rating, Cocklebur” value [3, 26] was 100 and the “Plant response rating, Cocklebur” value [3, 27] was 70. For the same compound, the “Plant response rating, Pigweed” value [4, 26] was 100, the “Plant response rating, Pigweed” value [4, 27] was 100 and the “Plant response rating, Foxtail, Giant” value [5, 26] was 100. For the same compound, the “Plant response rating, Foxtail, Giant” value [5, 27] was 100, the “Plant response rating, Surinam grass” value [6, 26] was 100 and the “Plant response rating, Surinam grass” value [6, 27] was 100. The “Plant response rating, Crabgrass” value [7, 26] was 100, the “Plant response rating, Crabgrass” value [7, 27] was 100 and the “Plant response rating, Morningglory” value [8, 26] was 100. For the same compound, the “Plant response rating, Morningglory” value [8, 27] was 90, the “Plant response rating, Corn” value [9, 26] was 20 and the “Plant response rating, Corn” value [9, 27] was 0. The “Plant response rating, Lambsquarters” value [10, 26] was 100, the “Plant response rating, Lambsquarters” value [10, 27] was 100 and the “Plant response rating, Velvetleaf” value [11, 26] was 100. For the same compound, the “Plant response rating, Velvetleaf” value [11, 27] was 70, the “Plant response rating, Lambsquarters” value [12, 28] was 100 and the “Plant response rating, Lambsquarters” value [12, 29] was 100. For the same compound, the “Plant response rating (0 to 100), Lambsquarters” value ([12]; preemergence, Rate 500 g/ha) was 100, the “Plant response rating, Lambsquarters” value [12, 30] was 100 and the “Plant response rating, Wheat” value [13, 28] was 0. For the same compound, the “Plant response rating, Wheat” value [13, 31] was 0, the “Plant response rating, Barnyardgrass” value [14, 28] was 0 and the “Plant response rating, Barnyardgrass” value [14, 31] was 80. The “Plant response rating, Cocklebur” value [15, 28] was 40, the “Plant response rating, Cocklebur” value [15, 31] was 100 and the “Plant response rating, Pigweed” value [16, 28] was 80. For the same compound, the “Plant response rating, Pigweed” value [16, 31] was 100, the “Plant response rating, Foxtail, Giant” value [17, 28] was 30 and the “Plant response rating, Foxtail, Giant” value [17, 31] was 50. For the same compound, the “Plant response rating, Surinam grass” value [18, 28] was 0, the “Plant response rating, Surinam grass” value [18, 31] was 0 and the “Plant response rating, Crabgrass” value [19, 28] was 20. For the same compound, the “Plant response rating, Crabgrass” value [19, 31] was 40, the “Plant response rating, Morningglory” value [20, 28] was 0 and the “Plant response rating, Morningglory” value [20, 31] was 70. The “Plant response rating, Corn” value [21, 28] was 0, the “Plant response rating, Corn” value [21, 31] was 0 and the “Plant response rating, Lambsquarters” value [22, 28] was 90. For the same compound, the “Plant response rating, Lambsquarters” value [22, 31] was 100, the “Plant response rating, Wild Oat” value [23, 28] was 0 and the “Plant response rating, Wild Oat” value [23, 31] was 0. The “Plant response rating, Velvetleaf” value [24, 28] was 50, the “Plant response rating, Velvetleaf” value [24, 31] was 70 and the “Plant response rating, Blackgrass” value [25, 28] was 0. The “Plant response rating, Blackgrass” value [25, 31] was 40.
`CCC(CC)c1ccn(C2CCN(c3ccc(Cl)c(OC)c3)C2=O)n1` (stereo not drawn) [Compound 118] was tested, and the “Plant response rating, Barnyardgrass” value [1, 26] was 100, the “Plant response rating, Barnyardgrass” value [1, 27] was 100 and the “Plant response rating, Rice” value [2, 26] was 0. The “Plant response rating, Rice” value [2, 27] was 0, the “Plant response rating, Cocklebur” value [3, 26] was 0 and the “Plant response rating, Cocklebur” value [3, 27] was 0. For the same compound, the “Plant response rating, Pigweed” value [4, 26] was 100, the “Plant response rating, Pigweed” value [4, 27] was 100 and the “Plant response rating, Foxtail, Giant” value [5, 26] was 100. For the same compound, the “Plant response rating, Foxtail, Giant” value [5, 27] was 40, the “Plant response rating, Surinam grass” value [6, 26] was 90 and the “Plant response rating, Surinam grass” value [6, 27] was 0. The “Plant response rating, Crabgrass” value [7, 26] was 100, the “Plant response rating, Crabgrass” value [7, 27] was 100 and the “Plant response rating, Morningglory” value [8, 26] was 100. For the same compound, the “Plant response rating, Morningglory” value [8, 27] was 40, the “Plant response rating, Corn” value [9, 26] was 30 and the “Plant response rating, Corn” value [9, 27] was 30. The “Plant response rating, Lambsquarters” value [10, 26] was 100, the “Plant response rating, Lambsquarters” value [10, 27] was 100 and the “Plant response rating, Velvetleaf” value [11, 26] was 90. For the same compound, the “Plant response rating, Velvetleaf” value [11, 27] was 20, the “Plant response rating, Lambsquarters” value [12, 28] was 100 and the “Plant response rating, Lambsquarters” value [12, 29] was 100. The “Plant response rating (0 to 100), Lambsquarters” value ([12]; preemergence, Rate 500 g/ha) was 100, the “Plant response rating, Lambsquarters” value [12, 30] was 100 and the “Plant response rating, Wheat” value [13, 28] was 20. The “Plant response rating, Barnyardgrass” value [14, 28] was 0, the “Plant response rating, Barnyardgrass” value [14, 32] was 90 and the “Plant response rating, Cocklebur” value [15, 28] was 60. For the same compound, the “Plant response rating, Cocklebur” value [15, 32] was 100, the “Plant response rating, Pigweed” value [16, 28] was 70 and the “Plant response rating, Foxtail, Giant” value [17, 28] was 0. For the same compound, the “Plant response rating, Surinam grass” value [18, 28] was 30, the “Plant response rating, Surinam grass” value [18, 32] was 40 and the “Plant response rating, Crabgrass” value [19, 28] was 40. For the same compound, the “Plant response rating, Morningglory” value [20, 28] was 40, the “Plant response rating, Corn” value [21, 28] was 20 and the “Plant response rating, Corn” value [21, 32] was 20. The “Plant response rating, Lambsquarters” value [22, 28] was 90, the “Plant response rating, Wild Oat” value [23, 28] was 30 and the “Plant response rating, Velvetleaf” value [24, 28] was 40. The “Plant response rating, Blackgrass” value [25, 28] was 0 and the “Plant response rating, Blackgrass” value [25, 32] was 0.
`CC(C)(C)c1ccn(C2CCN(c3cccc(C(F)(F)F)c3)C2=S)n1` (stereo not drawn) [Compound 22] was tested, and the “Plant response rating, Barnyardgrass” value [1, 26] was 80, the “Plant response rating, Barnyardgrass” value [1, 33] was 0 and the “Plant response rating, Rice” value [2, 26] was 0. For the same compound, the “Plant response rating, Rice” value [2, 33] was 0, the “Plant response rating, Cocklebur” value [3, 26] was 0 and the “Plant response rating, Cocklebur” value [3, 33] was 0. The “Plant response rating, Pigweed” value [4, 26] was 100, the “Plant response rating, Pigweed” value [4, 33] was 90 and the “Plant response rating, Foxtail, Giant” value [5, 26] was 100. The “Plant response rating, Foxtail, Giant” value [5, 33] was 30, the “Plant response rating, Surinam grass” value [6, 26] was 50 and the “Plant response rating, Surinam grass” value [6, 33] was 30. For the same compound, the “Plant response rating, Crabgrass” value [7, 26] was 100, the “Plant response rating, Crabgrass” value [7, 33] was 0 and the “Plant response rating, Morningglory” value [8, 26] was 0. For the same compound, the “Plant response rating, Morningglory” value [8, 33] was 0, the “Plant response rating, Corn” value [9, 26] was 0 and the “Plant response rating, Corn” value [9, 33] was 0. The “Plant response rating, Lambsquarters” value [10, 26] was 100, the “Plant response rating, Lambsquarters” value [10, 33] was 100 and the “Plant response rating, Velvetleaf” value [11, 26] was 0. The “Plant response rating, Velvetleaf” value [11, 33] was 0, the “Plant response rating, Lambsquarters” value ([12]; Preemergence, Rate 500 g/ha, scale 0 to 100) was 100 and the “Plant response rating, Lambsquarters” value ([12]; Rate 62 g/ha, scale 0 to 100, 0 no effect, 100 complete control) was 100. For the same compound, the “Plant response rating (0 to 100), Lambsquarters” value ([12]; preemergence, Rate 250 g/ha) was 100, the “Plant response rating, Lambsquarters” value [12, 33] was 100 and the “Plant response rating, Wheat” value [13, 34] was 0. For the same compound, the “Plant response rating, Wheat” value [13, 32] was 0, the “Plant response rating, Barnyardgrass” value [14, 34] was 0 and the “Plant response rating, Barnyardgrass” value [14, 32] was 80. The “Plant response rating, Cocklebur” value [15, 34] was 20, the “Plant response rating, Cocklebur” value [15, 32] was 20 and the “Plant response rating, Pigweed” value [16, 34] was 80. The “Plant response rating, Pigweed” value [16, 32] was 90, the “Plant response rating, Foxtail, Giant” value [17, 34] was 0 and the “Plant response rating, Foxtail, Giant” value [17, 32] was 0. The “Plant response rating, Surinam grass” value [18, 32] was 20, the “Plant response rating, Crabgrass” value [19, 34] was 40 and the “Plant response rating, Crabgrass” value [19, 32] was 40. For the same compound, the “Plant response rating, Morningglory” value [20, 34] was 30, the “Plant response rating, Morningglory” value [20, 32] was 30 and the “Plant response rating, Corn” value [21, 34] was 0. For the same compound, the “Plant response rating, Corn” value [21, 32] was 0, the “Plant response rating, Lambsquarters” value [22, 34] was 90 and the “Plant response rating, Lambsquarters” value [22, 32] was 90. The “Plant response rating, Wild Oat” value [23, 34] was 0, the “Plant response rating, Wild Oat” value [23, 32] was 0 and the “Plant response rating, Velvetleaf” value [24, 34] was 20. The “Plant response rating, Velvetleaf” value [24, 32] was 30, the “Plant response rating, Blackgrass” value [25, 34] was 0 and the “Plant response rating, Blackgrass” value [25, 32] was 0.
